Molecules are shown by their SMILES.

Here are results for three compounds from paper PMC3929961 (Molecular cell, 2013).

Common to all, as to format: binding
The target in experiment [1] is T1, EcDnaB (Escherichia coli, UniProt P0ACB0). In words: negative-stain EM 2D class averages and SAXS. Particulars: 0-1 mM AMPPNP in SAXS.
Experiment [2] concerns the target T2, GstDnaB (Geobacillus stearothermophilus, UniProt Q9X4C9).
T2 sequence (Q9X4C9 1-454): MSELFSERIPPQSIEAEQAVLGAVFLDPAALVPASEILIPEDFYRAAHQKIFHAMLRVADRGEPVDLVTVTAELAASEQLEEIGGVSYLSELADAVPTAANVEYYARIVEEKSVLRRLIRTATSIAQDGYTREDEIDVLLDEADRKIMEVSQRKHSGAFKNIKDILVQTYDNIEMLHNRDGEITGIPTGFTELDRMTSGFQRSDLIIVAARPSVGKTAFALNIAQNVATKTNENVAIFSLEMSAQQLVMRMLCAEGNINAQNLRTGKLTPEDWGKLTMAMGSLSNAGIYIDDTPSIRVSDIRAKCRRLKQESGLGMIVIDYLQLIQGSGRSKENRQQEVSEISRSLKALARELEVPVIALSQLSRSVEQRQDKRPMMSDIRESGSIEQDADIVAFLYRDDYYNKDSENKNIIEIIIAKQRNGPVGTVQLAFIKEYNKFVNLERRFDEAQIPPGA
In words: negative-stain EM 2D class averages.

In experiment [3] the target is T1, EcDnaB. In words: negative-stain EM 2D class averages.

T1 sequence (P0ACB0 2-471): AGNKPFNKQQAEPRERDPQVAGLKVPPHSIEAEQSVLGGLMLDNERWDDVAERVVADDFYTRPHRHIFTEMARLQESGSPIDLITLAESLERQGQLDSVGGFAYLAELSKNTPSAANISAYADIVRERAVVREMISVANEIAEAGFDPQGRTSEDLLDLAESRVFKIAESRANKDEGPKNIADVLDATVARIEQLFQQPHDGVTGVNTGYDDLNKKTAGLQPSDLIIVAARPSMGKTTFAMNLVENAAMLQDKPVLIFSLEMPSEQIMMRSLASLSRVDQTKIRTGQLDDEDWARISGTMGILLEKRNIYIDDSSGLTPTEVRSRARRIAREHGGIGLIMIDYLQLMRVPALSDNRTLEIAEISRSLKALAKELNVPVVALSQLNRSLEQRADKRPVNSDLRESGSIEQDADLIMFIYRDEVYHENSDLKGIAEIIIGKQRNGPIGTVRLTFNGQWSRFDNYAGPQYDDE

For the compound `Nc1ncnc2c1ncn2[C@@H]1O[C@H](COP(=O)(O)OP(=O)(O)NP(=O)(O)O)[C@@H](O)[C@H]1O` [AMPPNP], the “negative-stain EM 2D class averages and SAXS (collar constriction)” value in experiment [1] is “two kinds of 2D class averages were observed for EcDnaB in the presence of ATPγS”.

On to `Nc1ncnc2c1ncn2[C@@H]1O[C@H](COP(=O)(O)OP(=O)(O)OP(=O)(O)O)[C@@H](O)[C@H]1O` [ATP], for which the “negative-stain EM 2D class averages (collar constriction)” value in experiment [2] is 2D EM analysis again revealed evidence for a constricted species in the presence of ATP.

With `Nc1ncnc2c1ncn2[C@@H]1O[C@H](COP(=O)(O)OP(=O)(O)OP(O)(O)=S)[C@@H](O)[C@H]1O` [ATPγS], in experiment [3], the “negative-stain EM 2D class averages (collar constriction)” value is on record as “two kinds of 2D class averages were observed for EcDnaB in the presence of ATPγS”.
